# Test results: US20200281918A1, “CALCIUM RELEASE-ACTIVATED CALCIUM CHANNEL MODULATORS FOR TREATING HEMATOLOGICAL AND SOLID CANCERS” (Rhizen Pharmaceuticals SA, priority 2017, published 2020)
# What was measured:
# [1] = test system: A549 cells; assay: Induction of Caspase 3 (Millipore Caspase-3 kit, fluorimetric); type: cell-based; details: 48 hours, 10-10,000 nM (FIG. 1)
# Method: (§1) NCH-H460, A549 and NCI-H1975 cells were incubated with desired concentrations of the test compound for 48 hours. An equal number of cells per well (0.3×10^6 cells) were used. The increase in apoptosis manifested by an elevation in caspase-3 levels was determined using a Caspase-3 kit from Millipore. Induction of Caspase 3 by Compound (A) was measured fluorimetrically.
# [2] = test system: NCH-H460 cells; assay: as above; type: cell-based; details: 48 hours, 10-10,000 nM (FIG. 1)
# Method: as §1
# [3] = test system: NCI-H1975 cells; assay: as above; type: cell-based; details: 48 hours, 10-10,000 nM (FIG. 1)
# Method: as §1
# [4] = test system: A549 cells; assay: Scratch-wound migration assay; type: cell-based; details: 10% FBS, 72 hours, 10-10,000 nM (FIG. 2)
# Method: A scratch was made to a serum-starved monolayer of A549 cells followed by washing and incubation with a desired concentration of Compound (A) in media with 10% fetal bovine serum (FBS) for 72 hours. The distance between the two edges of the wound was measured and percent inhibition was calculated with respect to a control.
# [5] = test system: normal lung cell line WI-38; assay: Anti-proliferative effect (MTT assay); type: cell-based; details: WI-38, MTT, 48-72 hours
# Method: (§2) A panel of cancer cell lines representing various different types of cancers were plated in 96-well plates and incubated with desired concentrations of Compound (A) for 48-72 hours. At the end of the incubation period, MTT ((3-(4,5-dimethylthiazol-2-yl)-2,5-diphenyltetrazolium bromide)) was added. The plates were placed on a shaker for 5 minutes to mix the formazan and the optical density at 560 nm was measured using a spectrophotometer. Data were plotted using Graphpad Prism for calculation of the GI50 concentrations.
# [6] = test system: panel of cancer cell lines; assay: Anti-proliferative effect (MTT assay); type: cell-based; details: majority of the cell lines tested, 48-72 hours, MTT (FIG. 3)
# Method: as §2
# [7] = test system: 769-P; assay: Apoptosis (activated caspase-3 antibody) panel; type: cell-based
# Method: (§3) An antibody to activated caspase-3 was used to label cells from early to late stage apoptosis. The concentration of Compound (A) that caused a 2-fold induction in the caspase-3 signal was determined, indicating a significant apoptosis induction.
# [8] = test system: 786-O; assay: Apoptosis (activated caspase-3 antibody) panel; type: cell-based
# Method: as §3
# [9] = test system: A427; assay: Apoptosis (activated caspase-3 antibody) panel; type: cell-based
# Method: as §3
# [10] = test system: A7; assay: Apoptosis (activated caspase-3 antibody) panel; type: cell-based
# Method: as §3
# [11] = test system: ACHN; assay: Apoptosis (activated caspase-3 antibody) panel; type: cell-based
# Method: as §3
# [12] = test system: AGS; assay: Apoptosis (activated caspase-3 antibody) panel; type: cell-based
# Method: as §3
# [13] = test system: ARH-77; assay: Apoptosis (activated caspase-3 antibody) panel; type: cell-based
# Method: as §3
# [14] = test system: AsPC-1; assay: Apoptosis (activated caspase-3 antibody) panel; type: cell-based
# Method: as §3
# [15] = test system: C32; assay: Apoptosis (activated caspase-3 antibody) panel; type: cell-based
# Method: as §3
# [16] = test system: Calu6; assay: Apoptosis (activated caspase-3 antibody) panel; type: cell-based
# Method: as §3
# [17] = test system: DB; assay: Apoptosis (activated caspase-3 antibody) panel; type: cell-based
# Method: as §3
# [18] = test system: DOHH-2; assay: Apoptosis (activated caspase-3 antibody) panel; type: cell-based
# Method: as §3
# [19] = test system: G-402; assay: Apoptosis (activated caspase-3 antibody) panel; type: cell-based
# Method: as §3
# [20] = test system: HCT-116; assay: Apoptosis (activated caspase-3 antibody) panel; type: cell-based
# Method: as §3
# [21] = test system: Hs 578T; assay: Apoptosis (activated caspase-3 antibody) panel; type: cell-based
# Method: as §3
# [22] = test system: MDA MB 231; assay: Apoptosis (activated caspase-3 antibody) panel; type: cell-based
# Method: as §3
# [23] = test system: MDA MB 468; assay: Apoptosis (activated caspase-3 antibody) panel; type: cell-based
# Method: as §3
# [24] = test system: NCI-H661; assay: Apoptosis (activated caspase-3 antibody) panel; type: cell-based
# Method: as §3
# [25] = test system: PANC-1; assay: Apoptosis (activated caspase-3 antibody) panel; type: cell-based
# Method: as §3
# [26] = test system: PC-3; assay: Apoptosis (activated caspase-3 antibody) panel; type: cell-based
# Method: as §3
# [27] = test system: RD; assay: Apoptosis (activated caspase-3 antibody) panel; type: cell-based
# Method: as §3
# [28] = test system: RKO-AS45-1; assay: Apoptosis (activated caspase-3 antibody) panel; type: cell-based
# Method: as §3
# [29] = test system: RKOE6; assay: Apoptosis (activated caspase-3 antibody) panel; type: cell-based
# Method: as §3
# [30] = test system: SH-4; assay: Apoptosis (activated caspase-3 antibody) panel; type: cell-based
# Method: as §3
# [31] = test system: SK-BR-3; assay: Apoptosis (activated caspase-3 antibody) panel; type: cell-based
# Method: as §3
# [32] = test system: SKO-007; assay: Apoptosis (activated caspase-3 antibody) panel; type: cell-based
# Method: as §3
# [33] = test system: SW1088; assay: Apoptosis (activated caspase-3 antibody) panel; type: cell-based
# Method: as §3
# [34] = test system: T98G; assay: Apoptosis (activated caspase-3 antibody) panel; type: cell-based
# Method: as §3
# [35] = test system: U266B1; assay: Apoptosis (activated caspase-3 antibody) panel; type: cell-based
# Method: as §3
# [36] = test system: Wi38; assay: Apoptosis (activated caspase-3 antibody) panel; type: cell-based
# Method: as §3
# [37] = test system: NFkB; assay: Western blotting of markers in Jurkat cells; type: cell-based; details: 24 hours, 10, 100, 1000 nM (FIG. 4)
# Method: (§4) Cell lines were plated in RPMI media at a pre-determined density in a 6-well plate. After overnight incubation, cells were treated with Compound (A) for 24 hours. Cell lysates were analyzed for the expression of markers by Western Blotting. Gapdh, mTOR and S6 were used as a loading control for NFkB, phospho-mTOR, and phospho-S6 respectively. Lanes: A: Blank; B: 10 nM; C: 100 nM; D: 1000 nM.
# [38] = test system: phospho-S6; assay: Western blotting of markers in Jurkat cells; type: cell-based; details: 24 hours, 10, 100, 1000 nM (FIG. 4)
# Method: as §4
# [39] = test system: phospho-mTOR; assay: Western blotting of markers in Jurkat cells; type: cell-based; details: 24 hours, 10, 100, 1000 nM (FIG. 4)
# Method: as §4
# [40] = test system: NCI-H460 human non-small cell lung tumor xenografts; assay: NCI-H460 human non-small cell lung cancer xenograft model; type: in vivo, female Balb/c nude mice
# Method: (§5) The anti-tumor effect of Compound (A) was determined as a single agent in a NCI-H460 human non-small cell lung cancer xenografts model using female Balb/c nude mice. 10^6 cells were injected into the flank region. A week after tumor cell injection, mice either received the vehicle, oral administration of Compound (A) at 30 mg/kg BID or intravenous administration of taxol at 10 mg/kg Q3D (every three days) across a 15 day period. At the end of the study period, animals were sacrificed and the tumors harvested.
# [41] = Body weight in NCI-H460 xenograft model; type: in vivo, female Balb/c nude mice; details: oral 30 mg/kg BID, 15 day period, Balb/c nude mice
# Method: as §5
# [42] = concentration causing 2-fold induction in caspase-3 signal
structure (smiles),measurement,setting,value
"O=C(Cc1ccc2ncccc2c1)Nc1ccc(-n2nc(C3CC3)cc2C2CC2)cc1 [Compound (A), N-(4-(3,5-dicyclopropyl-1H-pyrazol-1-yl)phenyl)-2-(quinolin-6-yl)acetamide]",caspase-3 induction,[1],dose-dependent increase
same,caspase-3 induction,[2],dose-dependent increase
same,caspase-3 induction,[3],dose-dependent increase
same,FBS induced migration of A549 cells,[4],dose-dependent reduction
same,growth of normal lung cell line WI-38,[5],did not affect growth
same,GI50,[6],300 to 3000 nM
same,Apoptosis Emax,[7],10.3
same,G1/S cell cycle block,[7],4.82 µM
same,Apoptosis 2 Fold Induction,[7]; [42],24.71 µM
same,Apoptosis Emax,[8],4.67
same,G1/S cell cycle block,[8],4.4 µM
same,Apoptosis 2 Fold Induction,[8]; [42],10.31 µM
same,Apoptosis Emax,[9],16.1
same,G1/S cell cycle block,[9],3.52 µM
same,Apoptosis 2 Fold Induction,[9]; [42],2.77 µM
same,Apoptosis Emax,[10],55.74
same,G1/S cell cycle block,[10],2.78 µM
same,Apoptosis 2 Fold Induction,[10]; [42],2.22 µM
same,Apoptosis Emax,[11],2.86
same,G1/S cell cycle block,[11],10.3 µM
same,Apoptosis 2 Fold Induction,[11]; [42],11.23 µM
same,Apoptosis Emax,[12],26.62
same,G1/S cell cycle block,[12],3.16 µM
same,Apoptosis 2 Fold Induction,[12]; [42],5.04 µM
same,Apoptosis Emax,[13],5.36
same,G1/S cell cycle block,[13],7.02 µM
same,Apoptosis 2 Fold Induction,[13]; [42],30.74 µM
same,Apoptosis Emax,[14],2.07
same,G1/S cell cycle block,[14],3.64 µM
same,Apoptosis Emax,[15],4.7
same,G1/S cell cycle block,[15],10.7 µM
same,Apoptosis 2 Fold Induction,[15]; [42],80.52 µM
same,Apoptosis Emax,[16],3.34
same,G1/S cell cycle block,[16],10.5 µM
same,Apoptosis 2 Fold Induction,[16]; [42],3.73 µM
same,Apoptosis Emax,[17],16.8
same,G1/S cell cycle block,[17],7.03 µM
same,Apoptosis 2 Fold Induction,[17]; [42],4.08 µM
same,Apoptosis Emax,[18],6.13
same,G1/S cell cycle block,[18],3.23 µM
same,Apoptosis 2 Fold Induction,[18]; [42],3.03 µM
same,Apoptosis Emax,[19],5.14
same,G1/S cell cycle block,[19],3.74 µM
same,Apoptosis 2 Fold Induction,[19]; [42],3.11 µM
same,Apoptosis Emax,[20],20.36
same,G1/S cell cycle block,[20],1.89 µM
same,Apoptosis 2 Fold Induction,[20]; [42],2.97 µM
same,Apoptosis Emax,[21],1.19
same,G1/S cell cycle block,[21],4.56 µM
same,Apoptosis Emax,[22],4.35
same,Apoptosis 2 Fold Induction,[22]; [42],18.4 µM
same,Apoptosis Emax,[23],8.86
same,G1/S cell cycle block,[23],7.81 µM
same,Apoptosis 2 Fold Induction,[23]; [42],3.02 µM
same,Apoptosis Emax,[24],13.23
same,G1/S cell cycle block,[24],2.8 µM
same,Apoptosis 2 Fold Induction,[24]; [42],17.64 µM
same,Apoptosis Emax,[25],11.49
same,G1/S cell cycle block,[25],7.32 µM
same,Apoptosis 2 Fold Induction,[25]; [42],8.83 µM
same,Apoptosis Emax,[26],12.31
same,G1/S cell cycle block,[26],8.13 µM
same,Apoptosis 2 Fold Induction,[26]; [42],2.05 µM
same,Apoptosis Emax,[27],3.03
same,G1/S cell cycle block,[27],7.08 µM
same,Apoptosis 2 Fold Induction,[27]; [42],11.45 µM
same,Apoptosis Emax,[28],40.99
same,G1/S cell cycle block,[28],3.94 µM
same,Apoptosis 2 Fold Induction,[28]; [42],3.15 µM
same,Apoptosis Emax,[29],14.43
same,G1/S cell cycle block,[29],4.85 µM
same,Apoptosis 2 Fold Induction,[29]; [42],4.64 µM
same,Apoptosis Emax,[30],72.67
same,G1/S cell cycle block,[30],16.6 µM
same,Apoptosis 2 Fold Induction,[30]; [42],15.59 µM
same,Apoptosis Emax,[31],8.32
same,G1/S cell cycle block,[31],6.11 µM
same,Apoptosis 2 Fold Induction,[31]; [42],11.6 µM
same,Apoptosis Emax,[32],15.45
same,G1/S cell cycle block,[32],5.2 µM
same,Apoptosis 2 Fold Induction,[32]; [42],6.42 µM
same,Apoptosis Emax,[33],8.54
same,G1/S cell cycle block,[33],33 µM
same,Apoptosis 2 Fold Induction,[33]; [42],75.51 µM
same,Apoptosis Emax,[34],21.74
same,G1/S cell cycle block,[34],41.3 µM
same,Apoptosis 2 Fold Induction,[34]; [42],53.96 µM
same,Apoptosis Emax,[35],4.88
same,G1/S cell cycle block,[35],3.56 µM
same,Apoptosis 2 Fold Induction,[35]; [42],11.11 µM
same,Apoptosis Emax,[36],0.49
same,G1/S cell cycle block,[36],8.82 µM
same,NFkB expression (Western blot),[37],dose-dependent reduction
same,phospho-S6 expression (Western blot),[38],dose-dependent reduction
same,phospho-mTOR expression (Western blot),[39],dose-dependent reduction
same,tumor growth inhibition (TGI) value,"[40]; day 15, oral 30 mg/kg BID",38.3%
same,inhibition of tumor growth,"[40]; oral 30 mg/kg BID, 15 day period",significant inhibition of tumor growth
same,mice body weight,[41],did not affect the mice body weight
"CC(=O)O[C@H]1C(=O)[C@@]2(C)[C@H]([C@H](OC(=O)c3ccccc3)[C@]3(O)C[C@H](OC(=O)[C@H](O)[C@@H](NC(=O)c4ccccc4)c4ccccc4)C(C)=C1C3(C)C)[C@]1(OC(C)=O)CO[C@@H]1C[C@@H]2O [taxol, reference compound]",tumor growth inhibition (TGI) value,"[40]; day 15, intravenous 10 mg/kg Q3D",36.7%
